Experimental data taken from patent US12060329B1, “6′-(2-bromophenyl)-2′-ethoxy-3,4′-bipyridine-3′-carbonitrile as an antioxidant compound” (KING FAISAL UNIVERSITY, priority 2023, dated 2024).

Test: DPPH radical scavenging antioxidant test
Type: biochemical
Settings: 517 nm; for Inhibition (radical scavenging inhibition): compound 3 μM in ethanol, 0.2 mL DPPH (0.75 mM), 30 minutes in the dark
Description: The antioxidant activity of 6′-(2-bromophenyl)-2′-ethoxy-3,4′-bipyridine-3′-carbonitrile was investigated by 2,2-diphenyl-1-picrylhydrazyl (DPPH) in vitro tests that employ vitamin C as the positive control.
The antioxidant properties of the 6′-(2-bromophenyl)-2′-ethoxy-3,4′-bipyridine-3′-carbonitrile compound were studied by adding 0.2 mL DPPH (0.75 mM)) to 6′-(2-bromophenyl)-2′-ethoxy-3,4′-bipyridine-3′-carbonitrile (3 μM) (4) in ethanol. After 30 minutes of incubation in the dark, the absorbance was read against a blank at 517 nm. Ascorbic acid (vitamin C) was used as standard antioxidants (positive control). A blank sample was prepared by 0.2 mL of DPPH in 3 mL ethanol. A negative control sample was run using ethanol instead of the sample. The radical scavenging inhibition was calculated using the following equation: […]
The antioxidant activity for the synthesized compound is listed in Table 1, using Vitamin C as a reference.

| SMILES | Inhibition (radical scavenging inhibition) | antioxidant potential to vanish the DPPH radical colors (in words) (DPPH in vitro test, vitamin C as positive control) |
| --- | --- | --- |
| O=C1O[C@H]([C@@H](O)CO)C(O)=C1O [vit c, Ascorbic acid, reference compound] | 74% | – |
| CCOc1nc(-c2ccccc2Br)cc(-c2cccnc2)c1C#N [Product 4, 6′-(2-bromophenyl)-2′-ethoxy-3,4′-bipyridine-3′-carbonitrile] | 50% | high potential as an antioxidant compared to vitamin C |
